Reference: paper PMC11997890, “In Vivo and In Vitro Pharmacokinetic Studies of a Dual Topoisomerase I/II Inhibitor” (ACS Pharmacology & Translational Science, 2025)
Values belong to the compound of their own block, whether it stands above or below them.

Assays:
[1] = In vitro biotransformation of P8-D6 with rat tissue fractions; type: in vitro ADME; details: 1 mM P8-D6, 150 min
Method: P8-D6 (1 mM) was incubated with postnuclear supernatant (PNS), microsomes, or S9 reaction mixture of various tissue samples (liver, kidney, lung, spleen, and colon) from different donor species (pigs, mice, rats, and humans) for 150 min (study preparation scheme supplied as Figure S5). The commercial human and rat enzymes were subjected to quality control by the supplier. Three phase I metabolites were identified. […] LC-MS and NMR spectroscopic data for the metabolites are given in Supporting Information. Based on the structural characteristics, the metabolites were named as follows: P8-DO (4), P8-D6 N-oxide (6), and P8-D6 mono (8). All metabolites were synthesized to confirm the postulated structure (chapter Synthesis of Metabolites). The extent of metabolism during in vitro incubation was highly dependent on the species (pig > mouse > rat > human) (Figure ).
For all phase I metabolism studies (except cell cultures), a 0.3 mL reaction mixture consisting of 1 mM substrate (P8-D6, P8-D6 mono, P8-D6 N-oxide), 1 mM NADPH as a cofactor, 0.67 mg/mL protein from homogenized tissue or subcellular fractions, respectively (except recombinant enzymes, where 0.5 mg/mL was used), and PBS buffer (pH 7.4) was used. All experiments were performed in biological triplicates. […]

[2] = target: T1, CYP3A4 (Homo sapiens, UniProt P08684); test: Conversion of P8-D6 by recombinant CYP3A4; type: in vitro ADME
T1 construct: host or cells: human liver microsomes (one value) / recombinant CYP enzyme (other value)
Method: P8-D6 N-oxide was the most common metabolite for all incubations with subcellular fractions from the homogenized tissue. According to the detected MS-MS fragments (supplied as Supporting Information Chapter 2), it resulted from N-oxygenation of the nitrogen at the side chain since the unmodified fragment of P8-DO (m/z = 414.1) was detected. Furthermore, the detected fragment at m/z = 440.1 is most likely a carbocation at the remaining ethyl chain after splitting off the dimethylamine N-oxide further strengthening the theory of selectively forming this specific N-oxide. In addition, no relevant chemical shifts in the aromatic range of the ^1H NMR compared to P8-D6 and mono were observed (supplied as Supporting Information Chapter 2). Thus, no chemical modifications can have occurred on the aromatic rings, and all changes must therefore affect the side chain. […] To determine which enzymes were responsible for the conversion, seven recombinant CYP 450 isoenzymes recommended by the FDA’s “Guidance for Industry” and human FMO3 were used.
Among the recombinant enzymes, P8-D6 is mostly metabolized to P8-D6 mono by CYP3A4 (0.34%, significant compared to any other enzyme, p < 0.0001) and 2D6 (0.17%, significant compared to 2C8, 1A2, 2C19, and 2C9, p < 0.005) (Figure E). […]

[3] = target: T2, BCRP (ABCG2) (Homo sapiens, UniProt Q9UNQ0); test: Transporter inhibition, calcein-AM accumulation in MDCKII cells (BCRP overexpression); type: cell-based; details: intracellular accumulation of calcein-AM
T2 construct: expressed in transfected cells; host or cells: MDCKII
Method: (§1) The inhibitory characteristics of P8-D6 on the classic efflux transporters P-GP and BCRP (ABCG2) were evaluated (Figure ).
(§2) A potential interaction of P8-D6 with the export protein P-GP (ABCB1) was evaluated in MDCK (P-GP overexpression) and MDCKII (BCRP overexpression) cells. P-GP interaction was determined by the measurement of calcein accumulation within the cells according to Bauer et al. Calcein-acetoxymethylester (calcein-AM) is a nonfluorescent, lipophilic and therefore highly cell-permeable ester. Once inside the cell, the ester bonds are rapidly cleaved by nonspecific esterases, generating highly fluorescent calcein, which is trapped inside the cell because of its hydrophilic nature. Because calcein-AM is a substrate for P-GP, inhibition of the transporter decreases efflux, which results in a higher intracellular fluorescence signal. […] Calcein-AM (MoBiTec, Göttingen, FRG) was added to a final concentration of 1 μM and incubated for 30 min at 37 °C. Afterward, the cells were immediately washed 3 times with ice-cold Krebs–Ringer buffer and lysed with 1% Triton X-100. […] Each determination was repeated 3 times in 2 experiments to ensure reproducibility. All fluorescence values were corrected by subtracting the background fluorescence.

[4] = target: T3, P-GP (ABCB1) (Homo sapiens, UniProt P08183); test: Transporter inhibition, calcein-AM accumulation in MDCK cells (P-GP overexpression); type: cell-based; details: intracellular accumulation of calcein-AM
T3 construct: expressed in transfected cells; host or cells: MDCK (Madin Darby canine kidney)
Method: as §1, §2

[5] = mice; ref not given; cited from earlier work
[6] = target: T4, CYP2C9 (Homo sapiens, UniProt P11712); test: In vitro CYP inhibition, marker substrate diclofenac; type: in vitro ADME
T4 construct: host or cells: human liver microsomes (one value) / recombinant CYP enzyme (other value)
Method: (§3) To assess metabolizing enzyme-mediated drug interactions, P8-D6 was incubated with human liver (HLM) or recombinant CYP enzymes and the respective marker substrate according to the FDA (with the exception of using amitriptyline instead of S-mephenytoin). −
(§4) However, as some conversions were catalyzed by several enzymes, the conversion rates in HLM increased (e.g., bupropion and diclofenac).
(§5) To examine a possible in vitro CYP inhibition, the following CYP enzymes and marker substrates were investigated according to the FDA: , phenacetin (CYP1A2), bupropion (CYP2B6), amodiaquine (CYP2C8), diclofenac (CYP2C9), amitriptyline (CYP2C19), dextromethorphan (CYP2D6), testosterone (CYP3A4), and nifedipine (CYP3A4). Incubation was performed in a 0.2 mL reaction mix consisting of PBS buffer (pH 7.4), 1 mM marker substrate, 1 mM NADPH, and either 0.5 mg/mL recombinant CYP enzyme or human liver microsomes. P8-D6 was added for a final concentration of 0.5 μM, 1 μM, 5 μM, 10 μM, 25 μM, 50 μM, 100 μM, 500 μM, 1000 μM, and (in some cases) 5000 μM. Sample preparation was performed according to in vitro biotransformation.

[7] = target: T5, CYP1A2 (Homo sapiens, UniProt P05177); test: In vitro CYP inhibition, marker substrate phenacetin; type: in vitro ADME
T5 construct: host or cells: human liver microsomes (one value) / recombinant CYP enzyme (other value)
Method: as §3, §4, §5

T5 sequence (P05177 whole entry): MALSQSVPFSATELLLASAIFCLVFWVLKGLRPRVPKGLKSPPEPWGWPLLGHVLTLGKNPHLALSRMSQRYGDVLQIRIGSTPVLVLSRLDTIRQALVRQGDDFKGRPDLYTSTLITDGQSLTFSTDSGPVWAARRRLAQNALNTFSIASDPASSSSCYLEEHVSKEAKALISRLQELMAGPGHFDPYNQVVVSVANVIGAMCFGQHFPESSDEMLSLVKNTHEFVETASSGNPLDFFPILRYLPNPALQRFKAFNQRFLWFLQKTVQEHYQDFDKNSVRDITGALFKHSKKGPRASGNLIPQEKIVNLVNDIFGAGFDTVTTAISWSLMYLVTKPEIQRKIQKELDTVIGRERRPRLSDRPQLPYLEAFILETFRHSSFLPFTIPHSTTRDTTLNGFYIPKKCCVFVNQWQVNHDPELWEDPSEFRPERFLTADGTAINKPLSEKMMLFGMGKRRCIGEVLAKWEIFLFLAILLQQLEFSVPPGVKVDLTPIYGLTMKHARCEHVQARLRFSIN
T4 sequence (P11712 whole entry): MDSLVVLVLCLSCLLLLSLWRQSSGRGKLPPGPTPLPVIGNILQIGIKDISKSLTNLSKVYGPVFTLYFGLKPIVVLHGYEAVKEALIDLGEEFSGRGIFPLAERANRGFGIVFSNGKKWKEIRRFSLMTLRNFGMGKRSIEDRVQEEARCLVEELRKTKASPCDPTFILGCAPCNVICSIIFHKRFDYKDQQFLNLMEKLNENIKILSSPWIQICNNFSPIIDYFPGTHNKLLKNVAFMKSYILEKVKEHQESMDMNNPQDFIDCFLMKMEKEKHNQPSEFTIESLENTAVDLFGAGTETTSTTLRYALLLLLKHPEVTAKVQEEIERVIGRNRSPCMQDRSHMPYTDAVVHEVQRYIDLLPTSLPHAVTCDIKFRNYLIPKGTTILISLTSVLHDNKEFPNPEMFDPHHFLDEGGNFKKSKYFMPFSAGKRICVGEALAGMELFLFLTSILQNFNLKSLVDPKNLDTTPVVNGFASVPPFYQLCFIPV
T3 sequence (P08183 whole entry, species assumed): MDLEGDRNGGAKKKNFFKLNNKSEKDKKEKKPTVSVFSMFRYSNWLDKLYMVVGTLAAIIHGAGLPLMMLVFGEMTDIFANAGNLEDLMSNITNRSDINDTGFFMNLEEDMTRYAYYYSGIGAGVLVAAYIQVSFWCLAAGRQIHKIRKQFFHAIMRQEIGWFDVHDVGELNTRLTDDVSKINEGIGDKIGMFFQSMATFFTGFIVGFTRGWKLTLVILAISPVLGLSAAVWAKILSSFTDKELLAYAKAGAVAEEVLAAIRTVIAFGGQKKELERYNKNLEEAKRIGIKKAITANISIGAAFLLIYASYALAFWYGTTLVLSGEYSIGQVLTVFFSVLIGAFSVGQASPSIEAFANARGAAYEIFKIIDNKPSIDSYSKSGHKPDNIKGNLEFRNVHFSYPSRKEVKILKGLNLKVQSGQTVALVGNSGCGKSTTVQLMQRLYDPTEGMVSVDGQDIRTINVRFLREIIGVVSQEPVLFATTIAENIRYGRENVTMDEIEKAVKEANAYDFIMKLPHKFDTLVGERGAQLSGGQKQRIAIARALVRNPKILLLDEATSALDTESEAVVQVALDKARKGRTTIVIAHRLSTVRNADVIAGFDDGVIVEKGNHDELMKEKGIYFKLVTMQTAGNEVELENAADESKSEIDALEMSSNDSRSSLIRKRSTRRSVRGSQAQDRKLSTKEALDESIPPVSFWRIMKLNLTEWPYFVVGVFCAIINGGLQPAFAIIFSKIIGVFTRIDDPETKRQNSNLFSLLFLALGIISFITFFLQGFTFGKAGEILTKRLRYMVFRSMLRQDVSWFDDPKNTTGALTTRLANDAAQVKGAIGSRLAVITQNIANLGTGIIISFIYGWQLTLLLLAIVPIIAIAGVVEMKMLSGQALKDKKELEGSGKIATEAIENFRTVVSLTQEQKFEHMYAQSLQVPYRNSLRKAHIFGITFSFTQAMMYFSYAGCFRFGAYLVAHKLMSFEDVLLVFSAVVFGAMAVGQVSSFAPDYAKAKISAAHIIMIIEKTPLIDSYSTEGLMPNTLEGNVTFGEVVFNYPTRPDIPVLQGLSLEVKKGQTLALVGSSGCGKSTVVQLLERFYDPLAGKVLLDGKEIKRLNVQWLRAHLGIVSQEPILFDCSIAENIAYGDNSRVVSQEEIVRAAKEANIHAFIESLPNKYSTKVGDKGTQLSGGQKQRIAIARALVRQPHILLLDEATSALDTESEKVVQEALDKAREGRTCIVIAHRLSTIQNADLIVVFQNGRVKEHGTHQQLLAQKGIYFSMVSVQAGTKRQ
T1 sequence (P08684 whole entry): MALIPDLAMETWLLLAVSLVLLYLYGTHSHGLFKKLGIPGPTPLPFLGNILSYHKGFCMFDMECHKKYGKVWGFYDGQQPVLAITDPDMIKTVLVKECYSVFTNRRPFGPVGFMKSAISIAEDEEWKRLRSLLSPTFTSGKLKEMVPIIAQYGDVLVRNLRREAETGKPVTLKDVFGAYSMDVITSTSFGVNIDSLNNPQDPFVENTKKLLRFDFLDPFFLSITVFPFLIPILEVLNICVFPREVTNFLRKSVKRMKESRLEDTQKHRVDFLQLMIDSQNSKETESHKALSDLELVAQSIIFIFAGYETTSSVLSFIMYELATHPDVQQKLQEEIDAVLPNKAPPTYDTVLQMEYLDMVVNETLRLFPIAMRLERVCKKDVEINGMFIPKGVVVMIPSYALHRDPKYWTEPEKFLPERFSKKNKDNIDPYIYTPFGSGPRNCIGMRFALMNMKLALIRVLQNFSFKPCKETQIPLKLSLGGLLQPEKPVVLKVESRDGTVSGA
T2 sequence (Q9UNQ0 whole entry, species assumed): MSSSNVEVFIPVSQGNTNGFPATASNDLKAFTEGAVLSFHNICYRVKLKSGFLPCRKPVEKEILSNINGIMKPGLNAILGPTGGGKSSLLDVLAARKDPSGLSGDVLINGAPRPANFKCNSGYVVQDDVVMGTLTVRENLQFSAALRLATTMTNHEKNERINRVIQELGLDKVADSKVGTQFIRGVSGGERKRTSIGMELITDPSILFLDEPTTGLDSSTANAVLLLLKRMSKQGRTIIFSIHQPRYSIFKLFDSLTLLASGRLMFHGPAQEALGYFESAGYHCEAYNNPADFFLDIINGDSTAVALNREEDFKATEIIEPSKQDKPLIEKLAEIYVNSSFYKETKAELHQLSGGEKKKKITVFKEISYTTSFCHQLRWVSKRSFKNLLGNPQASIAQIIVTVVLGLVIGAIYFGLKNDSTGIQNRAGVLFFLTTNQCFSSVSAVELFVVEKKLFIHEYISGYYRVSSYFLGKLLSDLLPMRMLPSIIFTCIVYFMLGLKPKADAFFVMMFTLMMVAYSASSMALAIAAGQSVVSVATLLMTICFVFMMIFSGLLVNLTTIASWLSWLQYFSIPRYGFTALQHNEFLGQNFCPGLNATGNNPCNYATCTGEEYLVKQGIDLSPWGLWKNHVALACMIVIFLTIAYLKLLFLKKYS

formation of metabolite from P8-D6 ([1]; rat liver microsomes): 1.91%
formation of metabolite from P8-D6 ([1]; rat lung PNS): 1.37%
Compound: COc1cc(-c2cc3ccncc3c3nc(OCC[N+](C)(C)[O-])c4cnccc4c23)cc(OC)c1OC [P8-D6 N-oxide]

formation of metabolite from P8-D6 [2]: 0.34%
Compound: CNCCOc1nc2c3cnccc3cc(-c3cc(OC)c(OC)c(OC)c3)c2c2ccncc12 [P8-D6 mono]

Compound: COc1cc(-c2cc3ccncc3c3nc(OCCN(C)C)c4cnccc4c23)cc(OC)c1OC [P8-D6, 6-(N,N-dimethyl-2-aminoethoxy)-11-(3,4,5-trimethoxyphenyl)-pyrido[3,4-c][1,9]-phenanthroline]
IC50 [3]: 16.3 µM
IC50 [4]: 20.6 µM
maximum tolerated dose [5]: 5 mg/kg BW
IC50 ([6]; HLM): 162 µM
IC50 ([6]; recombinant CYP isoenzyme): 71.4 µM
IC50 ([7]; HLM): 912 µM
IC50 ([7]; recombinant CYP isoenzyme): 503 µM
